The values below come from paper PMC9024523, “Phenoxyaromatic Acid Analogues as Novel Radiotherapy Sensitizers: Design, Synthesis and Biological Evaluation” (Molecules, 2022).

Where “and” joins values, the source holds several entries; their conditions need not be identical. Equal entries are not always repeated. Entries after “also recorded” stand apart in the source; their conditions may differ. Where two headings read alike, the source gives them in different places.

Series [1] can be described thus: Pharmacokinetic study in rats. Format: in vivo. The following applies: rat; for AUC(0-inf) / AUC(0-t) / Cmax / Tmax / half-life / MRT inf: male, Sprague-Dawley, plasma; for MRT inf: read-out: MRTInf_obs; for AUC_%Extrap_obs: (AUCinf−AUClast)/AUCinf. The method, then: Based on the potential radiosensitization effects in vivo, we performed an in vivo pharmacokinetic (PK) study to preliminarily evaluate the druggability of 19c at a dosage of 100 mg/kg by intraperitoneal injection (ip) or oral administration (po).
The pharmacokinetic experiments with 19c in rats were performed by Beijing Pharmaron, Inc. All animals were maintained in the pathogen-free barrier animal facility, and the experiments were approved by the Animal Care and Use Committee of the company. The drug solution was formulated into a 10 mg/mL solution with normal saline on the day of administration. After a single dose of 19c (100 mg/kg) by intraperitoneal injection (ip) or oral administration (po) in male Sprague-Dawley rats (n = 3), blood samples were collected 0.25, 0.5, 1, 2, 4, 6, 8 and 24 h post dose and centrifuged at 4000× g for 5 min at 4 °C to obtain plasma. The plasma was diluted 3 times with water. A measure of 2 µL of diluted supernatant was injected into the LC/MS/MS system for quantitative analysis. […] The Phoenix WinNonlin 8.0 software was applied for the calculation of pharmacokinetic parameters.

In the next series the test system is HEK293 cells. Put plainly: Cell Titer-Glo cytotoxicity assay, HEK293. It counts as cell-based. As for the experimental part: (§1) For further in vivo evaluation of newly synthesized compounds, 19c and 19t were selected as candidates. Hemoglobin allosteric effectors require a relatively high blood concentration to be effective. Cytotoxicity evaluation was conducted out of consideration for medication safety. HEK293 and U87MG cells were used to evaluate the cytotoxicity.
(§2) Luciferase-transfected human glioma cells (U87-luc) and HEK293 cells were kindly provided by Dr. Nie and cultured in Dulbecco’s Modified Eagle Medium (CM10013, MacGene) with 10% fetal bovine serum (1966173C, Gibco) and 1% penicillin-streptomycin in a humidified atmosphere of 5% CO2 at 37 °C.
(§3) Cells were plated in a 96-well plate at a density of 2000 cells/well and then treated with 19c or 19t at gradient concentrations of 10^1, 10^2, 10^3, 10^4, 10^5, 10^6and 10^7 nM. Compounds 19c and 19t were prepared as the sodium salt by adding saturated sodium bicarbonate in the process of stock solution preparation. Cell viability was evaluated on the indicated days after treatment with a Cell Titer-Glo Luminescent Cell Viability Assay kit (G7572, Promega, Madison, WI, USA) according to the manufacturer’s instructions. All data were normalized to those on day 0 and presented as the mean ± standard deviation (SD).
Background: ATP-based viability assays read luminescence as a measure of living cells.

Series [2] relates to mouse red blood cells. Put plainly: In vitro red blood cell-based assay (oxygen equilibrium curve, Softron analyzer).
Series [3] relates to mouse red blood cells. The description is as above. The following applies: final effector concentration 2 mM, mean ± SD; for P50/P50C: P50C = control with 1% DMSO; for P50: 1% DMSO; for P50 / ∆P50: mouse red blood cells; for ∆P50: ∆P50 = P50 − P50C. From the text: In the first stage of our research, three series of analogues were designed and synthesized to explore refinement of the hydrophobic parts of 19f, 19m, 24a and 24b; hinge areas of 18g, 19b and 19y; and tail regions of 15c, 15d and 16c, respectively. We used the Softron Analyzer to evaluate the effect of these compounds on the half-blood oxygen saturation(P50) value of red blood cells. The most promising phenoxyaromatic acid compound, efaproxiral, was used as a positive control. […] The results reminded us that the modification of the hydrophobic part or linker extension is beneficial to improve an allosteric effect.
Eight-week-old female C57BL6J mice were purchased from Beijing Vital River Laboratory Animal Technology Co., Ltd. A total of 540 μL mouse blood was added into the 1.5 mL centrifuge tube, followed by adding 60 μL 3.8% sodium citrate. The mixture was then centrifuged at 1500 rpm for 10 min, the supernatant was carefully aspirated, and the cells were washed three times with PBS solution. After mixing packed red blood cells with Alsever’s solution in a ratio of 1:1, a blood gas analyzer (RADIOMETER ABL 90) was used to analyze the red blood cell density and hemoglobin concentration.
All of the compounds were prepared as 200 mM stock solutions in DMSO. Oxygen equilibrium measurements were performed with the Softron analyzer (Softron Medical Products, Beijing, China) using mouse red blood cells. The samples were prepared by adding 3 mg hemoglobin equivalent of red blood cells into 3.92 mL loading buffer (100 mM NaCl, 50 mM bis-Tris at pH 7.2 and 25 °C), followed by 20 μL 10% Dimethicone as a defoamer and 20 μL 20% BSA. Afterwards, 40 μL stock solution was added, and the mixture was loaded to the sample cell and fully deoxygenated by blowing into nitrogen at 37 °C for 15 min. Then, the oxygen equilibrium curve was recorded by blowing into oxygen.

Series [4] has as its system luciferase-labeled U87MG implanted into Balb/c nude mice brains. Put plainly: In vivo radiosensitization on orthotopically transplanted GB. The following applies: for overall survival time of tumor-bearing mice compared to vehicle control: 150 mg/kg ip combined with IR. Further details: species or system mouse. As for the experimental part:
In order to evaluate in vivo antitumor effects, luciferase-labeled U87MG was implanted into Balb/c nude mice brains. A small animal bioluminescence imaging system was applied to trace the tumor formation and dynamic changes in GB size. Cobalt 60 was used for fractionated-dose whole-brain irradiation therapy (IR). The tumor was irradiated with a total dose of 12 Gy in four fractions of 3 Gy at a dose rate of 0.3 Gy/min. Efaproxiral or 19c was administrated at a dosage of 150 mg/kg by intraperitoneal injection (ip) every four days over a period of sixteen days. IR was conducted 15 min after ip.
Four-week-old female BALB/c nude mice were purchased from Beijing Vital River Laboratory Animal Technology Co., Ltd. Animals were monitored daily by certified veterinary staff and laboratory personnel. All mice used in this study were maintained in a pathogen-free barrier animal facility. The study was in compliance with all relevant ethical regulations regarding animal research. All animal experiments were approved by the Institutional Animal Care and Use Committee at the Beijing Institute of Basic Medical Sciences. The U87-luc cells were processed and resuspended into basal medium at a concentration of 10^7 cells/mL. Next, 8 × 10^5 U87-luc glioma cells were implanted into the right frontal lobes of each nude mouse. Ten days after tumor implantation, tumor-bearing mice were randomly divided into six groups according to the tumor size and subjected to the indicated treatment (n = 6). Administration of drugs (150mg/kg) or vehicle was performed once every 4 days four consecutive times by intraperitoneal injection. All radiation treatments were performed 25 min after the drug or vehicle was given. Tumors on the brains of mice were irradiated at a dosage of 3 Gy four consecutive times using a ^60Co γ irradiator. The dose rate was 0.3 Gy/min. The bodies of the mice were shielded using lead blocks. The tumor progress was tracked by a small animal live bioluminescence imaging system (LB983NC100U, Germany).

The next series has as its system U87MG cells. Kind of series: Cell Titer-Glo cytotoxicity assay, U87MG. Format: cell-based, human. The method, then:
as §1, §2, §3

One may read the AUC(0-inf) as total exposure, with the tail of the curve extrapolated. Lower therefore signals less exposure. In general, AUC(0-t) refers to exposure summed from dosing to a finite time, without extrapolation to infinity. Low values mean low exposure, high ones high exposure. The Cmax is the highest concentration seen after dosing. The term Tmax denotes the time at which the peak concentration occurs. Usually half-life stands for the time in which the quantity being followed falls by half. On to `Cc1cc(C)cc(NC(=O)CCc2ccc(OC(C)(C)C(=O)O)cc2)c1` [19c, 2-(4-(3-((3,5-dimethylphenyl)amino)-3-oxopropyl)phenoxy)-2-methylpropanoic acid], for which, in series [1] (ip 100 mg/kg), the AUC(0-inf) worked out at 612 µg·h/mL, the AUC_%Extrap_obs was 0.0362% and the AUClast/D was 6122. In addition, in series [1] (ip 100 mg/kg, saline), the AUC(0-t) stood at 612 µg·h/mL, the Cmax turned out to be 202 µg/mL, the Tmax was determined as 0.25 h and the half-life was 2.55 h. Further, in series [1] (ip 100 mg/kg, saline), the MRT inf worked out at 2.32 h and the AUCinf is listed as 612,428 h*ng/mL. For the same compound, in series [1] (po 100 mg/kg, saline), the AUC(0-inf) was 411 µg·h/mL, the area under the curve AUC(0-t) came to 410 µg·h/mL, the peak level (Cmax) was 111 µg/mL and the Tmax worked out at 2 h. Also, in series [1] (po 100 mg/kg, saline), the half-life is 2.78 h and the MRT inf was 2.58 h. The oral availability entry in series [1] is given as “orally available”. In series [1] (po 100 mg/kg), this compound gave an AUC_%Extrap_obs of 0.0522% and an AUClast/D of 4104. In addition, the “clinical symptoms during the PK experiment” value in series [1] (single dose 100 mg/kg ip or po) was “No abnormal clinical symptoms”. For the same compound, the “cytotoxicity (summary statement)” value in the series with HEK293 cells (HEK293 (normal) cells) is given as “no cytotoxicity”. The cytotoxicity entry in the series on HEK293 cells (HEK293 cells, concentration of 5 mM) was “no cytotoxic effect”. Moreover, the “influence on the Bohr effect of red blood cells” value with mouse red blood cells [2] (2 mM, change in acidity, OEC shift) is on record as “will not offset the Bohr effect; also recorded: preserved the Bohr effect”. For the same compound, the “dose–response relationship of oxygen affinity of hemoglobin” value in the series with mouse red blood cells [2] (different concentrations, oxygen dissociation curve) was “dose-dependently altered the oxygen affinity of hemoglobin; also recorded: exerts an allosteric effect on hemoglobin at a micromolar level”. In the series on mouse red blood cells [3], the P50/P50C is 2.04 ± 0.04; the P50 is 89.16 ± 5.20 mmHg; the “∆P50” value was 45.50 mmHg and 45.50 ± 1.73 mmHg. Moreover, the “overall survival time of tumor-bearing mice compared to vehicle control” value in series [4] is “could improve the overall survival time”. In addition, in series [4] (orthotopically transplanted GB in mouse brains), the “radiosensitization effect in vivo (summary statement)” value is “exhibited a radiosensitization effect; also recorded: effective GB radiosensitizer”. The “cytotoxicity (summary statement)” value in the series on U87MG cells (U87MG (glioma) cells) is given as “no cytotoxicity”. In addition, the cytotoxicity entry with U87MG cells (U87MG cells, concentration of 5 mM) is recorded as “no cytotoxic effect”.
As for `Cc1cc(C)cc(NC(=O)Cc2ccc(OC(C)(C)C(=O)O)cc2)c1` [Efaproxiral, 2-(4-(2-((3,5-dimethylphenyl)amino)-2-oxoethyl)phenoxy)-2-methylpropanoic acid, reference compound], in the series on mouse red blood cells [3], the P50/P50C was found to be 1.79 ± 0.02, the P50 is 82.50 ± 1.01 mmHg and the “∆P50” value was determined as 36.40 mmHg. The “∆P50” value with mouse red blood cells [3] (listed as Efaproxiral ( 19a )) is given as 36.40 ± 1.01 mmHg. The “overall survival time of tumor-bearing mice compared to vehicle control” value in series [4] is given as “could improve the overall survival time”.
